This is an account of results in patent US12365687B2 (Hoffmann-La Roche Inc., priority 2021, dated 2025).

Broadly, the pKi is the negative decadic logarithm of the Ki, by convention in mol/L.

The target in experiment [1] is human GABAA α1β3γ2 receptor (Homo sapiens (Human), UniProt P14867+P18507). The experiment can be described thus: Radioligand binding assay for γ2-containing GABAA subtypes, [3H]Flumazenil competition (α1β3γ2). To be noted: for γ2/γ1 Selectivity Ratio: Ki α1β3γ2 (nM)/Ki α2β2γ1 (nM); for LogSel: Log[Ki α1β3γ2 (nM)/Ki α2β2γ1 (nM)]. As to the method:
The affinity of compounds at GABAA γ2 subunit-containing receptors was measured by competition for [^3H]Flumazenil (81.1 Ci/mmol; Roche) binding to HEK293F cells expressing human (transiently transfected) receptors of composition α1β3γ2.
Harvested pellets from HEK293F cells expressing the different GABAA γ2 receptor subtypes were resuspended in Mannitol Buffer pH 7.2-7.4 and processed as described above for the cells expressing the GABAA γ1 subunit-containing receptors.
Assays were incubated to equilibrium for 1 hour at 4° C. and harvested onto GF/C uni-filters (Packard) by filtration using a Packard harvester and washing with ice-cold wash buffer (50 mM Tris; pH 7.5). After anhydrousing, filter-retained radioactivity was detected by liquid scintillation counting. Ki values were calculated using Excel-Fit (Microsoft) and are the means of two determinations.

Experiment [2] deals with human GABAA α2β2γ1 receptor (Homo sapiens (Human), UniProt P47869+Q8N1C3). The experiment can be described thus: Radioligand binding assay for γ1-containing GABAA subtypes, [3H]RO7239181 competition (α2β2γ1). As to the method:
(§1) The affinity of compounds at GABAA γ1 subunit-containing receptors was measured by competition for [^3H]RO7239181 (67.3 Ci/mmol; Roche) binding to membranes from HEK293F cells (ThermoFisher R79007) expressing human (transiently transfected) receptors of composition α5β2γ1, α2β2γ1, α1β2γ1.
(§2) Harvested pellets from HEK293F cells expressing the different GABAA receptor subtypes were resuspended in Mannitol Buffer pH 7.2-7.4 (Mannitol 0.29 M, Triethylamine 10 mM, Acetic acid 10 mM, EDTA 1 mM plus protease inhibitors (20 tablets Complete, Roche Diagnostics Cat. No. 05 056 489 001 per liter)), washed two times and then resuspended at 1:10 to 1:15 dilution in the same buffer. Cell disruption was performed by stirring the suspension in a Parr vessel #4637 at 435 psi for 15 minutes, and then the suspensions were centrifuged at 1000×g for 15 minutes at 4° C. (Beckman Avanti J-HC; rotor JS-4.2). The supernatant (S1) was transferred in a 2 l Schott flask and the pellet (P1) was resuspended with Mannitol Buffer up to 175 ml. The resuspended pellet was transferred into a 250 ml Corning centrifugal beaker and centrifuged at 1500×g for 10 minutes at 4° C. (Beckman Avanti J-HC; rotor JS-4.2). The supernatant (S1) was then transferred in the 2 l Schott flask and the pellet was discarded. The supernatants (S1) were centrifuged in 500 ml Beckman polypropylene centrifugal beaker at 15′000×g for 30 minutes at 4° C. (Beckman Avanti J-20 XP; rotor JLA-10.500). The pellet (P2) was resuspended with Mannitol Buffer 1:1 and frozen at −80° C. The supernatant (S2) was centrifuged in 100 ml Beckman polypropylene centrifugal tubes at 48000×g for 50 minutes at 4° C. (Beckman Avanti J-20 XP; rotor JA-18). The supernatant (S3) was discarded and the pellet (P3) was resuspended with 1:1 Mannitol Buffer. The P2 and P3 protein concentration was determined with the BIORAD Standard assay method with bovine serum albumin as standard and measured on the NANO-Drop 1000. The membrane suspension was aliquots (500 μl per tube) and stored at −80° C. until required.
(§3) Membrane homogenates were resuspended and polytronised (Polytron PT1200E Kinematica AG) in Potassium Phosphate 10 mM, KCl 100 mM binding buffer at pH 7.4 to a final assay concentration determined with a previous experiment.
(§4) Assays were incubated to equilibrium for 1 hour at 4° C. and then, membranes were filtered onto unifilter (96-well white microplate with bonded GF/C filters preincubated 20-50 minutes in 0.3% Polyethylenimine) with a Filtermate 196 harvester (Packard BioScience) and washed 4 times with cold Potassium Phosphate 10 mM pH 7.4, KCl 100 mM binding buffer. After anhydrousing, filter-retained radioactivity was detected by liquid scintillation counting. Ki values were calculated using Excel-Fit (Microsoft) and are the means of two determinations.

The target in experiment [3] is human GABAA α5β2γ1 receptor (Homo sapiens (Human), UniProt P31644+Q8N1C3). Nature of the experiment: Radioligand binding assay for γ1-containing GABAA subtypes, [3H]RO7239181 competition (α5β2γ1). As to the method: as §1, §2, §3, §4
The target in experiment [4] is α2β2γ1 GABAA receptor subtype (Homo sapiens (Human), UniProt P47869+Q8N1C3). Nature of the experiment: Two-electrode voltage clamp electrophysiology in Xenopus oocytes expressing GABAA receptors (modulation of GABA EC20 current). The format is cell-based. To be noted: for Efficacy (GABA)%: % modulation of GABA EC20 = 100*(Fold increase-1), α2β2γ1 oocytes, compound at approx. 30-fold Ki; for Fold increase h-GABA-A α2β2γ1 oocyte @ 30-fold Ki: Xenopus oocytes expressing α2β2γ1, compound at approx. 30-fold its Ki α2β2γ1, GABA EC20 current; for potentiation of the GABA-induced current: α2β2γ1 GABAA receptor subtype expressing oocytes, GABA EC20. Here is the method: Xenopus laevis oocytes at maturation stages V-VI were used for the expression of cloned mRNA encoding GABAA receptor subunits. Oocytes ready for RNA micro-injection were bought from Ecocyte, Castrop-Rauxel, Germany and stored in modified Barth's medium (composition in mM: NaCl 88, KCl 1, NaHCO3 2.4, HEPES 10, MgSO4 0.82, CaNO3 0.33, CaCl2 0.33, pH=7.5) at 20° C. until the experiment.
Oocytes were plated in 96-well plates for microinjection using the Roboinject automated instrument (MultiChannelSystems, Reutlingen, Germany). Approximately 50 nL of an aqueous solution containing the RNA transcripts for the subunits of the desired GABAA receptor subtype was injected into each oocyte. […] Oocytes were kept in modified Barth's medium (composition in mM: NaCl 88, KCl 1, NaHCO3 […], HEPES 10, MgSO4 0.82, CaNO3 0.33, CaCl2 0.33, pH=7.5) at 20° C. until the experiment.
Electrophysiological experiments were performed using the Roboocyte instrument (MultiChannelSystems, Reutlingen, Germany) on days 3 to 5 after the micro-injection of mRNA. During the experiment the oocytes were constantly superfused by a solution containing (in mM) NaCl 90, KCl 1, HEPES 5, MgCl2 1, CaCl2 1 (pH 7.4). Oocytes were impaled by two glass microelectrodes (resistance: 0.5-0.8 MΩ) which were filled with a solution containing KCl 1M+K-acetate 1.5 M and voltage-clamped to −80 mV. The recordings were performed at room temperature using the Roboocyte two-electrode voltage clamp system (Multichannelsystem). After an initial equilibration period of 1.5 min GABA was added for 1.5 min at a concentration evoking approximately 20% of a maximal current response (EC20). After another rest interval of 2.5 min GABA was again added evoking a response of similar amplitude and shape. […] Current traces were recorded at a digitization rate of 10 Hz during and shortly before and after the GABA application.
Each compound and concentration was tested on at least 3 oocytes. Different oocytes were used for different compound concentrations.
For the analysis, the digitized current traces of the first and second GABA response were superimposed and, if necessary, rescaled to equal maximal amplitudes. The ratio between the two responses during the time interval of test compound application was calculated point by point. The extremum of the resulting “ratio trace” was taken as the efficacy (“Fold increase”) of the compound expressed as “% modulation of GABA EC20” (100*(Fold increase-1)).

The mark [5] stands for this setting: Ki h-GABAA α2β2γ1, [3H]RO7239181 competition binding, human GABAA α2β2γ1.
The mark [6] stands for this setting: Ki h-GABAA α2β2γ1, displacement of [3H]RO7239181, membranes of HEK293F cells expressing human receptors, means of two determinations.
Setting [7] is: Ki h-GABAA α2β2γ1, Table 3, reference compounds.

The structures appear in SMILES notation. pKi: −log10 of the molar value.

Take `C[C@@H]1N=C(c2c(F)cccc2F)c2c(ccc(Cl)c2Cl)-n2nc(OC3COC3)nc21` [Example 92, (4S)-7,8-dichloro-6-(2,6-difluorophenyl)-4-methyl-2-(oxetan-3-yloxy)-4H-[1,2,4]triazolo[1,5-a][1,4]benzodiazepine]: in experiment [1], the pKi is 5.48, the “γ2/γ1 Selectivity Ratio” value stood at 73.0 and the LogSel amounted to 1.86. The pKi in experiment [2] (setting [5]) was 7.35. Further, the negative-log Ki (pKi) in experiment [2] (setting [6]) is 7.35. This compound also gave a pKi in experiment [3] of 8.35. In experiment [4], the “Efficacy (GABA)%” value came to 44% and the “Fold increase h-GABA-A α2β2γ1 oocyte @ 30-fold Ki” value was 1.44.

As for `C[C@@H]1N=C(c2ncccc2F)c2c(ccc(Cl)c2Cl)-n2nc(C(=O)N3CC4(CCOC4)C3)nc21` [Example 100, [(4S)-7,8-dichloro-6-(3-fluoro-2-pyridyl)-4-methyl-4H-[1,2,4]triazolo[1,5-a][1,4]benzodiazepin-2-yl]-(6-oxa-2-azaspiro[3.4]octan-2-yl)methanone], in experiment [1], the pKi was 5.04, the “γ2/γ1 Selectivity Ratio” value is listed as 219.5 and the LogSel worked out at 2.34. The compound also had a pKi in experiment [2] (setting [5]) of 7.38. In addition, in experiment [2] (setting [6]), the pKi was 7.38. The pKi in experiment [3] was 8.12. For the same compound, in experiment [4], the “Efficacy (GABA)%” value is recorded as 128% and the “Fold increase h-GABA-A α2β2γ1 oocyte @ 30-fold Ki” value worked out at 2.28.

In the case of `CNC(=O)c1cn2c(n1)CN=C(c1ncccc1F)c1c-2ccc(Cl)c1Cl` [Example 12, 7,8-dichloro-6-(3-fluoro-2-pyridyl)-N-methyl-4H-imidazo[1,2-a][1,4]benzodiazepine-2-carboxamide], in experiment [1], the pKi is 6.30, the “γ2/γ1 Selectivity Ratio” value is recorded as 13.8 and the LogSel is recorded as 1.14. In experiment [2] (setting [5]), this compound gave a pKi of 7.44. The negative-log Ki (pKi) in experiment [2] (setting [6]) is 7.44. Moreover, the pKi in experiment [3] is 8.03. In experiment [4], the “Efficacy (GABA)%” value was 125% and the “Fold increase h-GABA-A α2β2γ1 oocyte @ 30-fold Ki” value is on record as 2.25.

On to `C[C@@H]1N=C(c2c(F)cccc2F)c2c(ccc(C(F)(F)F)c2Cl)-n2nc(C(=O)N3CC(OC(F)F)C3)nc21` [Example 51, [3-(difluoromethoxy)azetidin-1-yl]-[(4S)-7-chloro-6-(2,6-difluorophenyl)-4-methyl-8-(trifluoromethyl)-4H-[1,2,4]triazolo[1,5-a][1,4]benzodiazepin-2-yl]methanone], for which, in experiment [1], the pKi was 5.81, the “γ2/γ1 Selectivity Ratio” value came out at 53.3 and the LogSel was 1.73.

`Cc1nnc2n1-c1ccc(Cl)cc1C(c1ccccc1)=NC2` [Alprazolam, reference compound] displayed a LogSel in experiment [1] (Table 3) of −2.3.

As to `Cc1nnc2n1-c1ccc(Cl)cc1C(c1ccccc1Cl)=NC2` [Triazolam, reference compound], the LogSel in experiment [1] (Table 3) was −1.5. For the same compound, the “potentiation of the GABA-induced current” value in experiment [4] is recorded as about 60%.

For `C[C@@H]1N=C(c2ncccc2F)c2c(ccc(C(F)(F)F)c2Cl)-n2nc(C(=O)NCCF)nc21` [Example 152, (4S)-7-chloro-N-(2-fluoroethyl)-6-(3-fluoro-2-pyridyl)-4-methyl-8-(trifluoromethyl)-4H-[1,2,4]triazolo[1,5-a][1,4]benzodiazepine-2-carboxamide], the pKi in experiment [1] was under 4.52; in experiment [2] (setting [5]) it was 7.05; in experiment [2] (setting [6]), 7.05; in experiment [3] it was 7.69. Moreover, the “γ2/γ1 Selectivity Ratio” value in experiment [1] was determined as 333.7. The same compound had a LogSel in experiment [1] of 2.52.

Consider `CCOC(=O)c1nc2n(n1)-c1ccc(Cl)cc1C(c1ccccc1F)=NC2` [RE-B, reference compound], for which the pKi is 8.47 in experiment [1] and 7.74 in experiment [2] (setting [7]). For the same compound, the “γ2/γ1 Selectivity Ratio” value in experiment [1] (Table 3) came out at 0.18.

Consider `CN1C(=O)CN=C(c2ccccc2F)c2cc([N+](=O)[O-])ccc21` [Flunitrazepam, reference compound], for which, in experiment [4], the “potentiation of the GABA-induced current” value is on record as about 60%.

In the case of `CN(C)C(=O)c1nc2n(n1)-c1ccc(Cl)cc1C(c1ccccc1F)=NC2` [RE-A, reference compound], the figures for the pKi in experiment [1] and in experiment [2] (setting [7]) were 7.45 and 6.56, respectively. The “γ2/γ1 Selectivity Ratio” value in experiment [1] (Table 3) stood at 0.13.

In experiment [1] (Table 3), `Cc1ncc2n1-c1ccc(Cl)cc1C(c1ccccc1F)=NC2` [Midazolam, reference compound] displayed a LogSel of −2.2. Moreover, the “potentiation of the GABA-induced current” value in experiment [4] is recorded as about 60%.

For `Fc1cccc(F)c1C1=NCc2nc(C(F)F)cn2-c2ccc(Br)c(Cl)c21` [Example 3, 8-bromo-7-chloro-2-(difluoromethyl)-6-(2,6-difluorophenyl)-4H-benzo[f]imidazo[1,2-a][1,4]diazepine], the pKi in experiment [1] was 6.34; in experiment [2] (setting [5]) it was 7.52; in experiment [2] (setting [6]), 7.52; in experiment [3], 8.89. For the same compound, the “γ2/γ1 Selectivity Ratio” value in experiment [1] is listed as 15.0. Moreover, the LogSel in experiment [1] is 1.18.
